PMC9944328 (Nature Communications, 2023)
Like-named read-outs stand apart in the source and are kept apart here.

System: SSTR2 mutants
Assay: NanoBiT β-arrestin 1 recruitment assay, HEK293 (SSTR2 mutants);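 for Emax: percent of the maximal wild-type SSTR2 response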
Type: cell-based, human
Settings: for Fold of WT: β-arrestin recruitment EC50
Protocol: The NanoBiT β-arrestin 1 recruitment assays were carried out according to the method described previously. […] Human full-length SSTR wild-type and mutant vectors were C-terminally fused with a 15-amino acid flexible linker and the small fragment (SmBiT). HEK293 cells were seeded into six-well microplates at a density of 1.0 × 10^6 cells/well and cultured for 24 h at 37 °C with 5% CO2. After that, cells were co-transfected with pcDNA3.1+ vectors encoding SSTR wild-type or mutants and human β-arrestin 1. After transfecting for 24 h, the transfected cells were suspended and seeded into white 96-well plates, and then cultured at 37 °C overnight. After that the medium in each well was exchanged for 90 μl of 0.01% bovine serum albumin containing 20 μl of 50 μM coelenterazine h (Carbosynth) diluted in the HBSS assay buffer and incubated for 40 min at room temperature. Then, ligands diluted in the assay buffer was added to each well and the luminescence intensity was measured using the Synergy H1 microplate reader and detected at room temperature in a time period. All data presented are means of at least three independent experiments.

[1] = β-arrestin recruitment, SSTR2 F127(3.37)A, n=3
[2] = β-arrestin recruitment, SSTR2 F294(7.35)A, n=3, ND = not detected
[3] = β-arrestin recruitment, SSTR2 I284ECL3A, n=3
[4] = β-arrestin recruitment, SSTR2 K291(7.32)A, n=3, ND = not detected
[5] = β-arrestin recruitment, SSTR2 N276(6.55)A, n=3, ND = not detected
[6] = β-arrestin recruitment, SSTR2 W269(6.48)A, n=3
[7] = β-arrestin recruitment, SSTR2 Y50(1.39)A, n=3
[8] = β-arrestin recruitment, SSTR2 Y205(5.35)A, n=3
[9] = β-arrestin recruitment, SSTR2 Y302(7.43)A, n=3

## N#Cc1cccc(-c2ccc3ncc(-c4cc(F)cc(F)c4)c(N4CCC(N)CC4)c3c2)c1O [paltusotine]
best-fit, K291A-2
  LogEC50 (β-arrestin1 recruitment): -7.045
  Span (β-arrestin1 recruitment): 143.2
  Top (β-arrestin1 recruitment): 139.9
best-fit, K291A-3
  Bottom (β-arrestin1 recruitment): -4.699
  LogEC50 (β-arrestin1 recruitment): -6.141
  Span (β-arrestin1 recruitment): 138.3
  Top (β-arrestin1 recruitment): 133.6
best-fit, N276A-1
  Bottom (β-arrestin1 recruitment): -2.311
  LogEC50 (β-arrestin1 recruitment): -7.135
  Span (β-arrestin1 recruitment): 170
  Top (β-arrestin1 recruitment): 167.7
best-fit, N276A-2
  Bottom (β-arrestin1 recruitment): -1.74
  LogEC50 (β-arrestin1 recruitment): -7.135
  Span (β-arrestin1 recruitment): 128
  Top (β-arrestin1 recruitment): 126.3
best-fit, N276A-3
  Bottom (β-arrestin1 recruitment): -2.993
  LogEC50 (β-arrestin1 recruitment): -7.215
  Span (β-arrestin1 recruitment): 180.6
  Top (β-arrestin1 recruitment): 177.6
best-fit, Y302A-1
  Bottom (β-arrestin1 recruitment): 0.04519
  LogEC50 (β-arrestin1 recruitment): -6.65
  Span (β-arrestin1 recruitment): 206.8
  Top (β-arrestin1 recruitment): 206.8
best-fit, Y302A-2
  Bottom (β-arrestin1 recruitment): -0.03402
  LogEC50 (β-arrestin1 recruitment): -6.645
  Span (β-arrestin1 recruitment): 207.2
  Top (β-arrestin1 recruitment): 207.2
best-fit, Y302A-3
  Bottom (β-arrestin1 recruitment): -0.02562
  LogEC50 (β-arrestin1 recruitment): -6.645
  Span (β-arrestin1 recruitment): 156
  Top (β-arrestin1 recruitment): 156
read-out: Best-fit EC50, SSTR2 I284A, run 1
  EC50: 181 nM
read-out: Best-fit EC50, SSTR2 I284A, run 3
  EC50: 180 nM
read-out: Best-fit EC50, SSTR2 Y50A, run 1
  EC50: 74.4 nM
read-out: Best-fit EC50, SSTR2 Y50A, run 2
  EC50: 65 nM
read-out: Best-fit EC50, SSTR2 Y50A, run 3
  EC50: 66.7 nM
read-out: EC50 (best-fit value), SSTR2 W269A, run W269A-1
  EC50: 300 nM
read-out: EC50 (best-fit value), SSTR2 W269A, run W269A-2
  EC50: 610 nM
read-out: EC50 (best-fit value), SSTR2 W269A, run W269A-3
  EC50: 474 nM
read-out: EC50 (best-fit value), SSTR2 Y205A, run Y205A-2
  EC50: 150 nM
read-out: EC50 (best-fit value), SSTR2 Y205A, run Y205A-3
  EC50: 213 nM
read-out: EC50 (best-fit), F127A-1
  EC50: 210 nM
read-out: EC50 (best-fit), F127A-2
  EC50: 197 nM
read-out: EC50 (best-fit), F127A-3
  EC50: 152 nM
read-out: EC50 (β-arrestin1 recruitment), best-fit, D295A-1
  EC50: 2320 nM
read-out: EC50 (β-arrestin1 recruitment), best-fit, D295A-2
  EC50: 2540 nM
read-out: EC50 (β-arrestin1 recruitment), best-fit, D295A-3
  EC50: 1970 nM
read-out: EC50 (β-arrestin1 recruitment), best-fit, F294A-1
  EC50: 1050 nM
read-out: EC50 (β-arrestin1 recruitment), best-fit, F294A-3
  EC50: 872 nM
read-out: EC50 (β-arrestin1 recruitment), best-fit, K291A-1
  EC50: 79.7 nM
read-out: EC50 (β-arrestin1 recruitment), best-fit, K291A-2
  EC50: 90.2 nM
read-out: EC50 (β-arrestin1 recruitment), best-fit, N276A-1
  EC50: 73.2 nM
read-out: EC50 (β-arrestin1 recruitment), best-fit, N276A-3
  EC50: 61 nM
read-out: EC50 (β-arrestin1 recruitment), best-fit, Y302A-1
  EC50: 224 nM
read-out: EC50 (β-arrestin1 recruitment), best-fit, Y302A-2
  EC50: 226 nM
SSTR2 D295(7.36)A
  Fold of WT: 1.22
SSTR2 F127(3.37)A
  Fold of WT: 0.49
SSTR2 F294(7.35)A
  Fold of WT: 2.44
SSTR2 I284ECL3A
  Fold of WT: 0.45
SSTR2 K291(7.32)A
  Fold of WT: 0.21
SSTR2 N276(6.55)A
  Fold of WT: 0.17
SSTR2 W269(6.48)A
  Fold of WT: 2.65
SSTR2 Y50(1.39)A
  Fold of WT: 0.17
SSTR2 Y205(5.35)A
  Fold of WT: 0.42
SSTR2 Y302(7.43)A
  Fold of WT: 0.56
β-arrestin recruitment, SSTR2 D295(7.36)A, detected at 10 μM, n=3
  Emax: 87.12±2.30 %WT
β-arrestin recruitment, SSTR2 D295(7.36)A, n=3
  EC50: 495.7 ± 1.76 nM
[1]
  EC50: 198 ± 6.66 nM
  Emax: 60.24±1.11 %WT
β-arrestin recruitment, SSTR2 F208(5.38)A, detected at 10 μM, n=3
  Emax: 70.89±2.39 %WT
β-arrestin recruitment, SSTR2 F265(6.44)A, detected at 10 μM, n=3 octreotide, 4 paltusotine
  Emax: 49.61±1.04 %WT
[2]
  EC50: 990.7 ± 5.93 nM
  Emax: 114.80±11.09 %WT
β-arrestin recruitment, SSTR2 I130(3.40)A, detected at 10 μM, n=3
  Emax: 30.45±0.36 %WT
[3]
  EC50: 181 ± 3.33 nM
  Emax: 192.70±19.45 %WT
[4]
  EC50: 86.7 ± 3.5 nM
  Emax: 133.50±14.76 %WT
β-arrestin recruitment, SSTR2 L99(2.60)A, detected at 10 μM, n=3
  Emax: 84.26±3.71 %WT
[5]
  EC50: 69.1 ± 4.07 nM
  Emax: 157.20±15.71 %WT
β-arrestin recruitment, SSTR2 P220(5.50)A, detected at 10 μM, n=4
  Emax: 50.55±2.81 %WT
β-arrestin recruitment, SSTR2 Q102(2.63)A, detected at 10 μM, n=3
  Emax: 26.07±1.00 %WT
β-arrestin recruitment, SSTR2 Q126(3.36)A, detected at 10 μM, n=3
  Emax: 65.37±3.31 %WT
β-arrestin recruitment, SSTR2 T194(45.51)A, n=3
  Emax: 95.9±9.02 %WT
[6]
  EC50: 1077 ± 6.28 nM
  Emax: 50.80±24.99 %WT
[7]
  EC50: 68.7 ± 2.87 nM
  Emax: 90.74±11.02 %WT
[8]
  EC50: 172 ± 2.07 nM
  Emax: 152.00±23.85 %WT
[9]
  EC50: 225 ± 6.67 nM
  Emax: 190.00±17.00 %WT
